Results reported in patent US9636418B2 (priority 2013, dated 2017).
Read-outs that look alike come from different tables or passages of the source.

Assays:
Test in all cases: cell-based
hNav1.7 = hNav1.7 (Homo sapiens, UniProt Q15858); assay type: cell-based; conditions: PatchXpress, read-out: PX hNav1.7 Tonic IC50
hNav1.4 = hNav1.4 (Homo sapiens, UniProt P35499); conditions: for IC50: PatchXpress, read-out: PX hNav1.4 Tonic IC50
hNav1.5 = hNav1.5 (Homo sapiens, UniProt Q14524); conditions: for IC50: PatchXpress, read-out: PX hNav1.5 Tonic IC50
hNav1.5, sequence (Q14524 whole entry): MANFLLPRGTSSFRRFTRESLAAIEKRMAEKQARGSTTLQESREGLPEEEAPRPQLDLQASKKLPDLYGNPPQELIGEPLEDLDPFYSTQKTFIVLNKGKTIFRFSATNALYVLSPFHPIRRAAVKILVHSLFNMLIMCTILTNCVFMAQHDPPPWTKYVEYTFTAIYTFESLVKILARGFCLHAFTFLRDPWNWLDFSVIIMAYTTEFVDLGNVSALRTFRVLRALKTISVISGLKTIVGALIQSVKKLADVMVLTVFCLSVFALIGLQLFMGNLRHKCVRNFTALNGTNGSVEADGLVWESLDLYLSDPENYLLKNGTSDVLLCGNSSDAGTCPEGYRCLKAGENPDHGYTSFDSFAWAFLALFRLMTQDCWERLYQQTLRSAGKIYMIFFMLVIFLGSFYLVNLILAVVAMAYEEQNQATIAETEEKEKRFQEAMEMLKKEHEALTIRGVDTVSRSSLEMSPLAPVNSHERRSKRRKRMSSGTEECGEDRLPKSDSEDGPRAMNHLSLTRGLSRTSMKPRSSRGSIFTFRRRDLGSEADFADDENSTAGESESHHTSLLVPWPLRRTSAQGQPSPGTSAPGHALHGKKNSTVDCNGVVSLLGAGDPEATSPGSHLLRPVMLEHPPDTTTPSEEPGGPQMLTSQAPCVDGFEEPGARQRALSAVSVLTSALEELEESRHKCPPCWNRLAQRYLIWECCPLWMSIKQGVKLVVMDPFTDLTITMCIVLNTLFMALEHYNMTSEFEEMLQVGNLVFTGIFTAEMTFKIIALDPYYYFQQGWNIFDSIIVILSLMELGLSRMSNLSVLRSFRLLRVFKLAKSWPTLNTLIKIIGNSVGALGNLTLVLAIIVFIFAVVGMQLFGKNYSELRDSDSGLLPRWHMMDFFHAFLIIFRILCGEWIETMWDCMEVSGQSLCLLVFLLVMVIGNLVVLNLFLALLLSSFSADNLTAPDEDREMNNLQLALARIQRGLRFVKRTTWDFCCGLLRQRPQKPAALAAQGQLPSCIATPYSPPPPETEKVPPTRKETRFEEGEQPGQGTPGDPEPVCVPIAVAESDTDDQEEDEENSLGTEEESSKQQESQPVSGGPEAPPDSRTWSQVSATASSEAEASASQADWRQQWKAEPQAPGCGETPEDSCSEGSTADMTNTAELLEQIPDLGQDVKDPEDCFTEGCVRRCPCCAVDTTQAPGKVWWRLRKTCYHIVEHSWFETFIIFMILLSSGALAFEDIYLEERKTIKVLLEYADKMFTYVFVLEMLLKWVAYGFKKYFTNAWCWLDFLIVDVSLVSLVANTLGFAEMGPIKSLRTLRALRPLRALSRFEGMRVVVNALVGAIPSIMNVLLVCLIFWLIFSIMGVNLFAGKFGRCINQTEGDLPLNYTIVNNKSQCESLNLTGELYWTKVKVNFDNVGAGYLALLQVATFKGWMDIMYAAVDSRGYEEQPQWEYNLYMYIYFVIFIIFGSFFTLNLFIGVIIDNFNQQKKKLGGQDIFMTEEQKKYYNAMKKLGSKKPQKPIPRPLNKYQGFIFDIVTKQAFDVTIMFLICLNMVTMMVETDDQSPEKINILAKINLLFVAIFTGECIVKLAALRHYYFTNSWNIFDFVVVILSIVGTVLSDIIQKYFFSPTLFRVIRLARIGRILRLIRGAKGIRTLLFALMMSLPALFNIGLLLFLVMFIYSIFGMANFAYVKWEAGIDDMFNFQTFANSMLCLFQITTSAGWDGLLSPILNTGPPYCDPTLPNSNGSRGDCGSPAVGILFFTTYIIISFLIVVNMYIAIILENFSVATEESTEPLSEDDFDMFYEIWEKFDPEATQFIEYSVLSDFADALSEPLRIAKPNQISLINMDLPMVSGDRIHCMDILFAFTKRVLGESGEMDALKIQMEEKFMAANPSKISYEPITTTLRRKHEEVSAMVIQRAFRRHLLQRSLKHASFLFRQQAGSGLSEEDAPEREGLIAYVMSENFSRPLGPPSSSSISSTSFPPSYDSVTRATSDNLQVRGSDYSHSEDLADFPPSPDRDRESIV

[1] = * = at high concentrations compound would wash off slowly or not at all

hNav1.4, sequence (P35499 whole entry): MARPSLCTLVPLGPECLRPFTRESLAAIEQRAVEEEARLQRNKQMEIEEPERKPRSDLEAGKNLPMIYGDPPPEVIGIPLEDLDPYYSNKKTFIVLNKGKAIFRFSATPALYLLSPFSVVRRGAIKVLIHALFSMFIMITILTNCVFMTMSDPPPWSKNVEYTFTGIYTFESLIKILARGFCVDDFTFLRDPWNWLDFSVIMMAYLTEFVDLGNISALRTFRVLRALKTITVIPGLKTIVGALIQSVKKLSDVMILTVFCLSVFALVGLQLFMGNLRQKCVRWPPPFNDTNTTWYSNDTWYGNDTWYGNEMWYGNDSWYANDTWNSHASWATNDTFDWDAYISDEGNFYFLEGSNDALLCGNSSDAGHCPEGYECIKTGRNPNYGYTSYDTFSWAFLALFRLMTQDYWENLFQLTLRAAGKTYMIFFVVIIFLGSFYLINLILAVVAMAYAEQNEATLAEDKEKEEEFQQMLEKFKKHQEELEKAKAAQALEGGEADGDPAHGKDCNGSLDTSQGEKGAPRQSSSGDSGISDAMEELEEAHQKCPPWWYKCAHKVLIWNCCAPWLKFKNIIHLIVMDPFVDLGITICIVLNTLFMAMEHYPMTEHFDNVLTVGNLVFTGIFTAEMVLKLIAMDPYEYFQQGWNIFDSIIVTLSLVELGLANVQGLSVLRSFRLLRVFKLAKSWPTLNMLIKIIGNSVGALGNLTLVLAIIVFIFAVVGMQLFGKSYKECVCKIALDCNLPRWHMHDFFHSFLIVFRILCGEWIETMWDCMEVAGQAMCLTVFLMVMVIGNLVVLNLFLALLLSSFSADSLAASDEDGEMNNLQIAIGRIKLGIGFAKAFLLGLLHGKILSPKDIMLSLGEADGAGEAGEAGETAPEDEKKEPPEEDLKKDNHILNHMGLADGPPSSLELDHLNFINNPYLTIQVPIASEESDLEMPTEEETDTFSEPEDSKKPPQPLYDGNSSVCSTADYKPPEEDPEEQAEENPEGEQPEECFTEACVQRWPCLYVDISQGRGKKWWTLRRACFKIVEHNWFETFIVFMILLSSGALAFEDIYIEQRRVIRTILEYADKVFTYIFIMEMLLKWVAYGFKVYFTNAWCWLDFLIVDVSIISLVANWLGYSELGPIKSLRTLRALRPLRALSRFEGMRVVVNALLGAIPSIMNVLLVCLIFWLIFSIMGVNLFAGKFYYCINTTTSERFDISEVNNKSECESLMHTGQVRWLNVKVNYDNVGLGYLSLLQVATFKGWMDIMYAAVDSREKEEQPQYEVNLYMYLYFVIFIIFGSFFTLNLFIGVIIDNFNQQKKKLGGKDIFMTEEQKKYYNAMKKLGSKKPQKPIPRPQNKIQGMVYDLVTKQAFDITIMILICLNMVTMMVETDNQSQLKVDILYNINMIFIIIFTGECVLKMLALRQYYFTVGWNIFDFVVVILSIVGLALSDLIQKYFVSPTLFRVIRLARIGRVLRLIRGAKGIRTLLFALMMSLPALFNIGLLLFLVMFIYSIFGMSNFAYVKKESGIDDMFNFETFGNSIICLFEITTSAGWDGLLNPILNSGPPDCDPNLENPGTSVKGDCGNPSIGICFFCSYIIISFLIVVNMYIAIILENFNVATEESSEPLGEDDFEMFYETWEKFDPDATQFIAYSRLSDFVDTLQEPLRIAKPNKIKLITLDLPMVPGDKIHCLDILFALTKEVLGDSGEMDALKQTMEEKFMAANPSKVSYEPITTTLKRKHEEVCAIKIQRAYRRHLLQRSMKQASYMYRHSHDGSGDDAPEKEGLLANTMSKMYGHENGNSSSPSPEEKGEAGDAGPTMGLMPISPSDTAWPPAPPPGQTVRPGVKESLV

SMILES	IC50 (hNav1.7; tonic block)	IC50 (hNav1.4; tonic block)	IC50 (hNav1.5; tonic block)	Nav1.4/Nav1.7 (hNav1.4; ratio of PX tonic IC50 values)	Nav1.5/Nav1.7 (hNav1.5; ratio of PX tonic IC50 values)	IC50 (hNav1.7; [1])	IC50 (hNav1.4; [1])	Nav1.4/Nav1.7 (hNav1.4; ratio of PX IC50 values)	IC50 (hNav1.5; [1])
C#CC[C@@H]1NC(=O)[C@@H]2CSSC[C@H](NC(=O)[C@@H](N)Cc3ccc(O)cc3)C(=O)N[C@@H](CCC(N)=O)C(=O)N[C@@H](CCCCN)C(=O)N[C@@H](Cc3c[nH]c4ccccc34)C(=O)N[C@@H](CCCC)C(=O)N[C@@H](Cc3c[nH]c4ccccc34)C(=O)N[C@@H]([C@@H](C)O)C(=O)N[C@H]3CSSC[C@H](NC(=O)[C@H](CCC(=O)O)NC(=O)[C@H](CC(C)C)NC(=O)CNC1=O)C(=O)N[C@@H](CCCCN)C(=O)N[C@@H](CC(C)C)C(=O)N[C@@H](Cc1c[nH]c4ccccc14)C(=O)N[C@H](C(=O)N[C@@H](CCCNC(=N)N)C(=O)N[C@@H](CCCCN)C(=O)N[C@@H](Cc1ccc(O)cc1)C(=O)N[C@H](C(N)=O)[C@@H](C)CC)CSSC[C@H](NC(=O)[C@H](C)NC(=O)[C@H](CCCNC(=N)N)NC(=O)[C@H](CCCCN)NC(=O)[C@H](CO)NC(=O)[C@H](CC(=O)O)NC3=O)C(=O)N2 [compound 317]	3.8 nM	614 nM	3520 nM	–	–	–	–	–	–
CCCC[C@@H]1NC(=O)[C@H](Cc2c[nH]c3ccccc23)NC(=O)[C@H](CCCCN)NC(=O)[C@H](CCC(N)=O)NC(=O)[C@@H](NC(=O)[C@@H](N)Cc2ccc(O)cc2)CSSC[C@@H]2NC(=O)[C@@H]3CSSC[C@@H](C(=O)N[C@@H](CCCNC(=N)N)C(=O)N[C@@H](CCCCN)C(=O)N[C@H](C(=O)N[C@@H](Cc4c[nH]c5ccccc45)C(N)=O)[C@@H](C)CC)NC(=O)[C@H](Cc4c[nH]c5ccccc45)NC(=O)[C@H](CC(C)C)NC(=O)[C@H](CCCCN)NC(=O)[C@H](CSSC[C@H](NC(=O)[C@H]([C@@H](C)O)NC(=O)[C@H](Cc4c[nH]c5ccccc45)NC1=O)C(=O)N[C@@H](CC(=O)O)C(=O)N[C@@H](CCCCN=[N+]=[N-])C(=O)N[C@@H](CCCCN)C(=O)N[C@@H](CCCNC(=N)N)C(=O)N[C@@H](C)C(=O)N3)NC(=O)[C@H](CCC(=O)O)NC(=O)[C@H](CC(C)C)NC(=O)CNC(=O)[C@H](CCC(=O)O)NC2=O [compound 305]	435 nM	–	–	0	0	–	–	–	–
C#CC[C@@H]1NC(=O)[C@@H]2CSSC[C@H](NC(=O)[C@@H](N)Cc3ccc(O)cc3)C(=O)N[C@@H](CCC(N)=O)C(=O)N[C@@H](CCCCN)C(=O)N[C@@H](Cc3c[nH]c4ccccc34)C(=O)N[C@@H](CCCC)C(=O)N[C@@H](Cc3c[nH]c4ccccc34)C(=O)N[C@@H]([C@@H](C)O)C(=O)N[C@H]3CSSC[C@H](NC(=O)[C@H](CCC(=O)O)NC(=O)[C@H](CC(C)C)NC(=O)CNC1=O)C(=O)N[C@@H](CCCCN)C(=O)N[C@@H](CC(C)C)C(=O)N[C@@H](Cc1c[nH]c4ccccc14)C(=O)N[C@H](C(=O)N[C@@H](CCCNC(=N)N)C(=O)N[C@@H](CCCCN)C(=O)N[C@H](C(=O)N[C@H](C(N)=O)[C@@H](C)CC)[C@@H](C)CC)CSSC[C@H](NC(=O)[C@H](C)NC(=O)[C@H](CCCNC(=N)N)NC(=O)[C@H](CCCCN)NC(=O)[C@H](CO)NC(=O)[C@H](CC(=O)O)NC3=O)C(=O)N2 [compound 346]	9.95 nM	291 nM	1020 nM	29	–	–	–	–	–
C#CC[C@@H]1NC(=O)[C@H](CCCNC(=N)N)NC(=O)[C@H](CCCCN)NC(=O)[C@H](CO)NC(=O)[C@H](CC(=O)O)NC(=O)[C@@H]2CSSC[C@@H]3NC(=O)[C@H](CCC(=O)O)NC(=O)[C@H](CC(C)C)NC(=O)CNC(=O)[C@H](CCC(=O)O)NC(=O)[C@H](CSSC[C@H](NC(=O)[C@@H](N)Cc4ccc(O)cc4)C(=O)N[C@@H](CCC(N)=O)C(=O)N[C@@H](CCCCN)C(=O)N[C@@H](Cc4c[nH]c5ccccc45)C(=O)N[C@@H](CCCC)C(=O)N[C@@H](Cc4c[nH]c5ccccc45)C(=O)N[C@@H]([C@@H](C)O)C(=O)N2)NC(=O)[C@H](CSSC[C@@H](C(=O)N[C@@H](CCCNC(=N)N)C(=O)N[C@@H](CCCCN)C(=O)N[C@H](C(=O)N[C@H](C(N)=O)[C@@H](C)CC)[C@@H](C)CC)NC(=O)[C@H](Cc2c[nH]c4ccccc24)NC(=O)[C@H](CC(C)C)NC(=O)[C@H](CCCCN)NC3=O)NC1=O [compound 345]	7.16 nM	1660 nM	4570 nM	–	–	–	–	–	–
C#CC[C@@H]1NC(=O)[C@H](CC(=O)O)NC(=O)[C@@H]2CSSC[C@@H]3NC(=O)[C@H](CCC(=O)O)NC(=O)[C@H](CC(C)C)NC(=O)CNC(=O)[C@H](CCC(=O)O)NC(=O)[C@H](CSSC[C@H](NC(=O)[C@@H](N)Cc4ccc(O)cc4)C(=O)N[C@@H](CCC(N)=O)C(=O)N[C@@H](CCCCN)C(=O)N[C@@H](Cc4c[nH]c5ccccc45)C(=O)N[C@@H](CCCC)C(=O)N[C@@H](Cc4c[nH]c5ccccc45)C(=O)N[C@@H]([C@@H](C)O)C(=O)N2)NC(=O)[C@H](CSSC[C@@H](C(=O)N[C@@H](CCCNC(=N)N)C(=O)N[C@@H](CCCCN)C(=O)N[C@@H](Cc2ccc(O)cc2)C(=O)N[C@H](C(N)=O)[C@@H](C)CC)NC(=O)[C@H](Cc2c[nH]c4ccccc24)NC(=O)[C@H](CC(C)C)NC(=O)[C@H](CCCCN)NC3=O)NC(=O)[C@H](C)NC(=O)[C@H](CCCNC(=N)N)NC(=O)[C@H](CCCCN)NC1=O [compound 315]	1.28 nM	825 nM	2460 nM	–	–	–	–	–	–
CC[C@H](C)[C@H](NC(=O)[C@@H](NC(=O)[C@H](CCCCN)NC(=O)[C@H](CCCNC(=N)N)NC(=O)[C@@H]1CSSC[C@@H]2NC(=O)[C@H](C)NC(=O)[C@H](CCCNC(=N)N)NC(=O)[C@H](CCCCN)NC(=O)[C@H](CO)NC(=O)[C@H](CC(=O)O)NC(=O)[C@@H]3CSSC[C@H](NC(=O)[C@H](CCCNC(=N)N)NC(=O)[C@H](CC(C)C)NC(=O)CNC(=O)[C@H](CCC(=O)O)NC(=O)[C@H](CSSC[C@H](NC(=O)[C@@H](N)CCC(=O)O)C(=O)N[C@@H](CCC(N)=O)C(=O)N[C@@H](CCCCN)C(=O)N[C@@H](Cc4c[nH]c5ccccc45)C(=O)N[C@@H](CCSC)C(=O)N[C@@H](Cc4c[nH]c5ccccc45)C(=O)N[C@@H]([C@@H](C)O)C(=O)N3)NC2=O)C(=O)N[C@@H](CCCCN)C(=O)N[C@@H](CC(C)C)C(=O)N[C@@H](Cc2c[nH]c3ccccc23)C(=O)N1)[C@@H](C)CC)C(N)=O [compound 49]	–	–	–	–	–	0.3 nM	8 nM	27	6440 nM
CCCC[C@@H]1NC(=O)[C@H](Cc2c[nH]c3ccccc23)NC(=O)[C@H](CCCCN)NC(=O)[C@H](CCC(N)=O)NC(=O)[C@@H](NC(=O)[C@@H](N)Cc2ccc(O)cc2)CSSC[C@@H]2NC(=O)[C@@H]3CSSC[C@@H](C(=O)N[C@@H](CCCNC(=N)N)C(=O)N[C@@H](CCCCN)C(=O)N[C@H](C(=O)N[C@@H](Cc4c[nH]c5ccccc45)C(N)=O)[C@@H](C)CC)NC(=O)[C@H](Cc4c[nH]c5ccccc45)NC(=O)[C@H](CC(C)C)NC(=O)[C@H](CCCCN)NC(=O)[C@H](CSSC[C@H](NC(=O)[C@H]([C@@H](C)O)NC(=O)[C@H](Cc4c[nH]c5ccccc45)NC1=O)C(=O)N[C@@H](CC(=O)O)C(=O)N[C@@H](CO)C(=O)N[C@@H](CCCCN)C(=O)N[C@@H](CCCNC(=N)N)C(=O)N[C@@H](CCCCN=[N+]=[N-])C(=O)N3)NC(=O)[C@H](CCC(=O)O)NC(=O)[C@H](CC(C)C)NC(=O)CNC(=O)[C@H](CCC(=O)O)NC2=O [compound 306]	1.15 nM	635 nM	1970 nM	550	–	–	–	–	–
CCCC[C@@H]1NC(=O)[C@H](Cc2c[nH]c3ccccc23)NC(=O)[C@H](CCCCN)NC(=O)[C@H](CCC(N)=O)NC(=O)[C@@H](NC(=O)[C@@H](N)CCCCN=[N+]=[N-])CSSC[C@@H]2NC(=O)[C@@H]3CSSC[C@@H](C(=O)N[C@@H](CCCNC(=N)N)C(=O)N[C@@H](CCCCN)C(=O)N[C@H](C(=O)N[C@@H](Cc4c[nH]c5ccccc45)C(N)=O)[C@@H](C)CC)NC(=O)[C@H](Cc4c[nH]c5ccccc45)NC(=O)[C@H](CC(C)C)NC(=O)[C@H](CCCCN)NC(=O)[C@H](CSSC[C@H](NC(=O)[C@H]([C@@H](C)O)NC(=O)[C@H](Cc4c[nH]c5ccccc45)NC1=O)C(=O)N[C@@H](CC(=O)O)C(=O)N[C@@H](CO)C(=O)N[C@@H](CCCCN)C(=O)N[C@@H](CCCNC(=N)N)C(=O)N[C@@H](C)C(=O)N3)NC(=O)[C@H](CCC(=O)O)NC(=O)[C@H](CC(C)C)NC(=O)CNC(=O)[C@H](CCC(=O)O)NC2=O [compound 304]	3.86 nM	1740 nM	2560 nM	–	–	–	–	–	–
C#CC[C@@H]1NC(=O)[C@H](CCCNC(=N)N)NC(=O)[C@H](CCCCN)NC(=O)[C@H](CO)NC(=O)[C@H](CC(=O)O)NC(=O)[C@@H]2CSSC[C@@H]3NC(=O)[C@H](CCCNC(=N)N)NC(=O)[C@H](CC(C)C)NC(=O)CNC(=O)[C@H](CCC(=O)O)NC(=O)[C@H](CSSC[C@H](NC(=O)[C@@H](N)Cc4ccc(O)cc4)C(=O)N[C@@H](CCC(N)=O)C(=O)N[C@@H](CCCCN)C(=O)N[C@@H](Cc4c[nH]c5ccccc45)C(=O)N[C@@H](CCCC)C(=O)N[C@@H](Cc4c[nH]c5ccccc45)C(=O)N[C@@H]([C@@H](C)O)C(=O)N2)NC(=O)[C@H](CSSC[C@@H](C(=O)N[C@@H](CCCNC(=N)N)C(=O)N[C@@H](CCCCN)C(=O)N[C@@H](CCC(=O)O)C(=O)N[C@H](C(N)=O)[C@@H](C)CC)NC(=O)[C@H](Cc2c[nH]c4ccccc24)NC(=O)[C@H](CC(C)C)NC(=O)[C@H](CCCCN)NC3=O)NC1=O [compound 331]	0.493 nM	105 nM	3510 nM	–	–	–	–	–	–
